Common to all, as to type: biochemical
Assay [1] addresses T1, Taq DNA polymerase (Thermus aquaticus, UniProt P19821).
T1 construct: purchased Eppendorf AG
As to the kind of experiment: M13 phage DNA primer extension assay (agarose gel read-out). The settings on record: for restoration of Taq DNA polymerase activity at 60° C.: concentration range tested, lowest 10 μmol; for inhibition of Taq DNA polymerase at 40° C. (FIG. 5) / inhibition of Taq DNA polymerase (FIG. 6): 40° C.; for inhibitory effect on Taq DNA polymerase in primer extension assay: 51° C., carbohydrates 1% w/vol, ds Lambda DNA 5 μg/rxn, 10 minutes pre-incubation with Taq. The source says:
A simple non-radioactive primer extension assay was used to monitor the activity of Taq DNA polymerase for DNA synthesis at various temperatures. The universal −47 M13 24-mer sequencing primer (New England Biolabs, Inc.) was annealed to circular single-stranded virion DNA from E. coli phage M13 (New England Biolabs, Inc.) to form an appropriate template for DNA synthesis by Taq DNA polymerase.
During the assay reactions, the annealed primer is extended by stepwise addition of complementary nucleotides (dNTP) on the single-stranded template DNA with Taq polymerase. The polymerase mediated primer extension reaction transforms the circular single-stranded (ss) template DNA into a double-stranded (ds) plasmid-like circular DNA molecule, as shown in FIG. 1. A completely ds circular phage DNA molecule is synthesized when the de-novo synthesized complementary strand reaches the 5′ end of the extended primer. This terminates the DNA synthesis process due to the weak strand displacement activity of Taq DNA polymerase. The ss primed template DNA, the full length ds circular DNA synthesis product, and intermediate synthesis products with ds regions of variable length differ from each other by their electrophoretic mobility in 1% agarose gels. The initial DNA template and all reaction products can be separated and monitored by electrophoresis in a 1% […] agarose gel stained with ethidium bromide.
The electrophoretic mobility of the three species reciprocally correlates with the length of the de-novo synthesized complementary strand. With increasing length of the ds regions, the migration of intermediate primer extension products shifts toward the slow migrating band of ds circular DNA (full-length synthesis product). The amount (band intensity) of the ds full-length synthesis product, as well as the migration shift of intermediate primer extension product, were used as a measure for the activity and extension rate of Taq DNA polymerase under various reaction conditions.
After the denaturation/annealing reaction the primed ss template DNA was stored frozen at −20° C. until use. 5 μL of this primed ss template DNA mix were added into a 50 μL primer extension assay reaction, or 2 μL into a 20 μL assay, respectively. The primer extension assay reactions were set-up on ice in 0.2 mL PCR tubes adding the reaction components to the following final concentrations:
The primer extension reactions were incubated for either 20 or 40 minutes on Eppendorf Mastercyclers set to the desired reaction temperature (30° C.-70° C.). At the end of the incubation time the reaction were placed on ice and 1 μL of 100 mM EDTA was added to stop the reaction immediately. 20 μL of each primer extension assay reaction were loaded on the 1% agarose gel for further analysis.
Soluble carbohydrates 5% w/vol aqueous solutions in molecular biology grade water were prepared. The desired carbohydrates or ds DNA were added to the primer extension reaction described above in Example 2 to final concentrations of 1% w/vol. In modification of the original primer extension assay the reaction mixtures were set-up without the primed template DNA. The primer-template DNA was added to the Taq DNA polymerase/carbohydrate sample after a 10 minutes pre-incubation in order to permit preliminary interaction of the carbohydrate with the Taq DNA polymerase, i.e., pre-incubate the carbohydrate onto the Taq DNA polymerase. The primer extension reactions were incubated for 40 minutes at 51° C. (the critical temperature for specific primer annealing). 20 μl of the reaction mixtures were analyzed on 0.7% agarose gel.
Primer extension assays were carried out in the presence of various concentration of dextran sulfate Mw 1500 (see FIG. 4), Mw 4000, Mw 5000 and Mw 8000 (see FIGS. 5 and 6). The reaction set-up was modified so that the dextran sulfates were pre-mixed into the Taq polymerase solution (5 U/μl) to provide final concentrations as indicated in the Figures. […]

The target of assay [2] is T1, Taq DNA polymerase. As to the kind of experiment: 2 kb human β-globin gene fragment PCR, specificity and yield on agarose gel. The procedure:
In order to amplify a predictable sized DNA fragment of the human β-globin gene, a pair of known primers was selected from a region of the human β-globin gene (Collins et al (1984) Prog Nucleic Acid Res Mol Biol 31:315-462 to yield PCR products with length of 2.0 kb: The Taq DNA polymerase 5 U/μl containing 0.2 mM dextran sulfate Mw4000 was used in the PCR mixtures (10 mM Tris-HCl, pH 8.3, 50 mM KCl, 2.5 mM Mg(OAc)2, 200 μM dNTP) in which human genomic DNA (100 ng) was used as template. The PCR was performed as follows: 94° C. for 2 min followed by 35 cycles of 55° C.—20 seconds, 72° C.—2:30 minutes and 94° C. for −15 seconds. The PCR products were subjected to agarose gel electrophoresis. Negative control experiments were carried out under the same PCR conditions except that unmodified Taq DNA Polymerase was used in the reaction. A positive control experiment was carried out in the same PCR conditions except that AmpliTaq Gold DNA Polymerase (Perkin Elmer Biosystems), the market leading product for performing highly specific hot start PCR, with the appropriate reaction buffer were used in the reaction.
The same basic PCR assay was performed as described in the previous Examples, except that Taq DNA polymerase preparations were mixed with increasing amounts of dextran sulfate Mw4000. […]

For assay [3], the target named is T1, Taq DNA polymerase. As to the kind of experiment: Primer extension assay quantified with picogreen (de-novo synthesized ds DNA). The settings on record: Mw4000, Mw5000, Mw8000 at 175 μmol, 30 μmol and 32 μmol; 5 minutes incubation; FIG. 10. The source says:
FIG. 10 graphically illustrates the temperature dependent inhibition of Taq DNA polymerase by dextran sulfate Mw4000, Mw5000, and Mw8000 which have been quantitatively analyzed. In each reaction the amount of de-novo synthesized double-stranded DNA was quantified with picogreen on a Fluorescence Microplate Reader. The amount of double-stranded DNA in the control reactions with unmodified Taq polymerase at each temperature tested were taken as 100% activity at the corresponding reaction temperature. […] at the corresponding reaction temperature and multiplied by 100 to calculate the percent of residual activity of dextran sulfate inhibited Taq polymerase from the activity of the unmodified enzyme at that temperature (bold line graphs). 100 minus the percent of residual activity of dextran sulfate inhibited Taq polymerase represents the percent of relative activity inhibition of dextran sulfate/Taq polymerase complexes at each temperature shown with dotted line graphs.
Primer extension was set-up as described in Example 4. The final concentrations of dextran sulfate Mw4000, Mw5000 and Mw8000 were adjusted to 175 μmol, 30 μmol and 32 μmol, respectively. At each tested incubation temperature a control reaction was carried out with unmodified Taq polymerase. After 5 minutes incubation the reactions were stopped as described earlier. 25.2 μl out of 50 μl were used to quantify the yield of de-novo synthesized double-stranded DNA with picogreen. The picogreen stained DNA samples were measured on a Fluorescence Microplate Reader.
The amount of double-stranded DNA in the control reactions with unmodified Taq polymerase at each temperature tested were taken as 100% activity at the corresponding reaction temperature. […]

Setting [4] is: 20 minutes, first concentration ranges.
Setting [5] is: 20 minutes, re-fined concentration ranges.

T1 sequence (P19821 whole entry): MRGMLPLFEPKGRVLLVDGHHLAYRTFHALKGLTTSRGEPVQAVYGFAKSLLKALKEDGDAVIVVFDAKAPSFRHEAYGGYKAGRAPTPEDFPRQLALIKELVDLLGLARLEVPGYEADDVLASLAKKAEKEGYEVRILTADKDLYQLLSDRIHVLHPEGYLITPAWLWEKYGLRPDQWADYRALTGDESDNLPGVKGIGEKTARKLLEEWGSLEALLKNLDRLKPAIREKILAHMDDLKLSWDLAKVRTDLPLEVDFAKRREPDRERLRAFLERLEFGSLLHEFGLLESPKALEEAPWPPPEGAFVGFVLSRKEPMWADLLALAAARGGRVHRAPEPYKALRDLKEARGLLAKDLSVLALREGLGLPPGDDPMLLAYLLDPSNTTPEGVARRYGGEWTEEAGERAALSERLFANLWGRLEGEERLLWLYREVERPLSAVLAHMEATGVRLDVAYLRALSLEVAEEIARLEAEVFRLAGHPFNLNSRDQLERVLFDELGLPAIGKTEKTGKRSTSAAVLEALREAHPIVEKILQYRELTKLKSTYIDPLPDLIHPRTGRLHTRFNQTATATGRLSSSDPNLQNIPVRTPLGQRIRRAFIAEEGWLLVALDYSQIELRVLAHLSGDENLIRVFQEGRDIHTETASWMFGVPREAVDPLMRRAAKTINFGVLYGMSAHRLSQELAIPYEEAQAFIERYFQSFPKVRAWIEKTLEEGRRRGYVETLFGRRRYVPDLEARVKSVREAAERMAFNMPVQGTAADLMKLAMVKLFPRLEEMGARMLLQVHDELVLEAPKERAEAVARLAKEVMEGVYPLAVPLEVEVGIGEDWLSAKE

In the case of “dextran sulfate [dextran sulfate Mw 1500]”, on Taq DNA polymerase [1] (50° C. and 60° C., FIG. 4), the “concentration at which partial release of inhibition was detected” value is under 50 µmol. Moreover, the “restoration of Taq DNA polymerase activity at 60° C.” value at Taq DNA polymerase [1] (20 minutes) was “only be partially restored”; on Taq DNA polymerase [1] (20 minutes, listed as dextran sulfate Mw 1,500) it was “full synthesis activity could not be regained”.

In the case of “dextran sulfate [dextran sulfate Mw 4000]”, the “effect on specificity of the PCR reaction” value on Taq DNA polymerase [2] (100 ng human genomic DNA, Taq 5 U/μl containing 0.2 mM dextran sulfate, 35 cycles, FIG. 7) is given as “significantly enhanced the specificity”. Besides, at Taq DNA polymerase [2] (increasing amounts of dextran sulfate, FIG. 8), the “yield and specificity of the 2 kb PCR fragment versus concentration” value is recorded as “clear correlation”. Moreover, the “inhibition of Taq DNA polymerase at 40° C. (FIG. 5)” value (“inhibition … at 40° C. (FIG. 5)” below) at Taq DNA polymerase [1] (setting [4]) was “strong inhibition”. Besides, the “inhibition of Taq DNA polymerase (FIG. 6)” value on Taq DNA polymerase [1] (setting [5]) was “strong inhibition”. In addition, at Taq DNA polymerase [3], the “temperature dependence of Taq DNA polymerase inhibition (relative to unmodified Taq)” value was “inhibit Taq DNA polymerase in a temperature dependent manner”.

With “dextran sulfate [dextran sulfate Mw 5000]”, the “inhibition … at 40° C. (FIG. 5)” value at Taq DNA polymerase [1] (setting [4]) is given as “strong inhibition”. Further, on Taq DNA polymerase [1] (setting [5]), the “inhibition of Taq DNA polymerase (FIG. 6)” value is given as “strongest inhibition of all dextran sulfate derivatives tested”. In addition, the entries for the “inhibitory effect on Taq DNA polymerase in primer extension assay” value at Taq DNA polymerase [1] (MW 5000) and at Taq DNA polymerase [1] (listed as dextran sulfate having a molecular weight of 5000) were “strong inhibition” and “strong inhibitor”, respectively. For the same substance, the “concentration at which almost full Taq polymerase activity could be restored between 60-70° C.” value at Taq DNA polymerase [1] (20 minutes, dextran sulfate pre-mixed into Taq polymerase solution) was determined as 1.25 µM. For the same substance, at Taq DNA polymerase [1] (first concentration ranges, 40° C.-70° C., 20 minutes), the “concentration range with strong inhibition at 40° C. and release of almost full activity at 70° C. (FIG. 5)” value is 1.25 µmol. Moreover, on Taq DNA polymerase [1] (re-fined concentration ranges, 40° C.-70° C., 20 minutes), the “concentration range with strong inhibition at 40° C. and release of almost full activity at 70° C. (FIG. 6)” value worked out at 1.25 µmol. Also, the “temperature dependence of Taq DNA polymerase inhibition (relative to unmodified Taq)” value at Taq DNA polymerase [3] was “inhibit Taq DNA polymerase in a temperature dependent manner”.

On to “dextran sulfate [dextran sulfate Mw 8000]”, for which the “inhibition … at 40° C. (FIG. 5)” value at Taq DNA polymerase [1] (setting [4]) is recorded as “strong inhibition”. On Taq DNA polymerase [1] (setting [5]), the “inhibition of Taq DNA polymerase (FIG. 6)” value was “strong inhibition”. The “temperature dependence of Taq DNA polymerase inhibition (relative to unmodified Taq)” value at Taq DNA polymerase [3] is “inhibit Taq DNA polymerase in a temperature dependent manner”.

For methylcellulose [reference compound], the “inhibitory effect on Taq DNA polymerase in primer extension assay” value on Taq DNA polymerase [1] is recorded as “weak inhibitory effect”.
